In ChEMBL document CHEMBL3351226, “Autumnalamide, a prenylated cyclic peptide from the cyanobacterium Phormidium autumnale, acts on SH-SY5Y cells at the mitochondrial level” (J Nat Prod, 2014):
Active and inactive are the calls of the source. The rule behind the calls is not given here.

Tests used:
[1] = molecular target: Sodium channel protein type 8 subunit alpha (Homo sapiens) (UniProt Q9UQD0); test: Effect on human NaV1.6 expressed in HEK293 cells assessed as effect on sodium current by whole cell patch clamp electrophysiology method; format: cell-based
Chain of Sodium channel protein type 8 subunit alpha (Homo sapiens) (Q9UQD0 whole entry, looked up): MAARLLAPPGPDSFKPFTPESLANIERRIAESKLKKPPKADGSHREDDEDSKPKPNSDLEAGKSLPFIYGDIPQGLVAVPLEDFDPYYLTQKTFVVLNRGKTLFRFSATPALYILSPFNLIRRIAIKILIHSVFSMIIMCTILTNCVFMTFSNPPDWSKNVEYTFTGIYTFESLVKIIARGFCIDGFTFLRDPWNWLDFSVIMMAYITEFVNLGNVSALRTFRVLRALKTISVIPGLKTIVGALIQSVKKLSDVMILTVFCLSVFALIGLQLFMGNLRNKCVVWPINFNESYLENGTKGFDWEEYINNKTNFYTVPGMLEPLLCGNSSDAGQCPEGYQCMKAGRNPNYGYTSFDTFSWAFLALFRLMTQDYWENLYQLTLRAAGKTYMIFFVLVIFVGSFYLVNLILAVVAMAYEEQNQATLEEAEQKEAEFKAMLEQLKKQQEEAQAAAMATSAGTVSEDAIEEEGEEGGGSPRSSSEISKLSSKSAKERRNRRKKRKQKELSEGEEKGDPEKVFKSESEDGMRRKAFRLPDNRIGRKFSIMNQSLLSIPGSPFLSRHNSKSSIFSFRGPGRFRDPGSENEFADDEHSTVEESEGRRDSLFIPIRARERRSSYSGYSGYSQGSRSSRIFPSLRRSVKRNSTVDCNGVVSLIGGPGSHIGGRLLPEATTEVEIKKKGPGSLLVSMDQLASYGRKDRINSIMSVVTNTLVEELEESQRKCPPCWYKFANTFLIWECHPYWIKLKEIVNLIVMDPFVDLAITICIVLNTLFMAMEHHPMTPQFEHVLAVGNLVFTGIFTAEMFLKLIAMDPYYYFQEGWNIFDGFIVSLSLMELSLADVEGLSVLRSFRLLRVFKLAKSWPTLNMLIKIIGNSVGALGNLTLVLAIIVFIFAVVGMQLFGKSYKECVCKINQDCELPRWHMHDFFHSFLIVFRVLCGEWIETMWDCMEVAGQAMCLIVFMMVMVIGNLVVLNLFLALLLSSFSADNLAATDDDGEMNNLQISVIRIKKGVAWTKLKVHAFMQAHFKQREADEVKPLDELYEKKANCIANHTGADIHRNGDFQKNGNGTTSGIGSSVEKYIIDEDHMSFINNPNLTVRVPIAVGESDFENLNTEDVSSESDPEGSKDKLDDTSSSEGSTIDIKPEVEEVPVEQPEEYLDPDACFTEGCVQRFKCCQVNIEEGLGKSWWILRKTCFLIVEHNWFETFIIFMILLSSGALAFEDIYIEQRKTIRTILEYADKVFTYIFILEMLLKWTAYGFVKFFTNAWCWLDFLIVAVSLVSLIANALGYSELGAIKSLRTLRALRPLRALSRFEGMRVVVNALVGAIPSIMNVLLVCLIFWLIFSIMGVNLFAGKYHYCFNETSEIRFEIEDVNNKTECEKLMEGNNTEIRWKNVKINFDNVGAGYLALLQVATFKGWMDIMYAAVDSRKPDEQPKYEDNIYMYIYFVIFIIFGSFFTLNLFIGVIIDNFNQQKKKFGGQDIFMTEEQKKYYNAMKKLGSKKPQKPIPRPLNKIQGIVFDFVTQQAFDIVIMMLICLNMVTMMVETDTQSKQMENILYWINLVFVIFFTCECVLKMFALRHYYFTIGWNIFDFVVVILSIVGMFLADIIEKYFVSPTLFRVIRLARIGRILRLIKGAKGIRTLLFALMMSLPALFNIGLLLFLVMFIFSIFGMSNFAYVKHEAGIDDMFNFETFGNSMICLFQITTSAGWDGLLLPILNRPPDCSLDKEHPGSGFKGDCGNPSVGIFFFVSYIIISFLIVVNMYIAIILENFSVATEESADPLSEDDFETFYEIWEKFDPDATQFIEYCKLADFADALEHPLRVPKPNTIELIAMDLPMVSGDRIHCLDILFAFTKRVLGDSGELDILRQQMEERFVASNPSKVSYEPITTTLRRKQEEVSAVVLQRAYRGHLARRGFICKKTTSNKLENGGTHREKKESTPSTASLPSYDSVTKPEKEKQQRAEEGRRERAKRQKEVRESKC

SH-SY5Y [2] = conditions: Homo sapiens, at 10 µM
Description: Induction of mitochondrial membrane potential loss in human SH-SY5Y cells at 10 uM incubated for 10 mins in presence of 0.2 uM CsA by TMRE dye based assay

SH-SY5Y [3] = test: Inhibition of SOC in human SH-SY5Y cells assessed as reduction in thapsigargin-induced Ca2+ influx incubated for 5 mins at 10 uM in presence of 30 uM SKF96365 by FURA-2AM dye based fluorescence assay; format: cell-based
SH-SY5Y [4] = conditions: Homo sapiens, at 10 µM; remark: listed apart in the source
Description: Inhibition of SOC in human SH-SY5Y cells assessed as reduction in thapsigargin-induced Ca2+ influx incubated for 5 mins at 10 uM by FURA-2AM dye based fluorescence assay

SH-SY5Y [5] = test: Modulation of mitochondrial permeability transition pore opening in human SH-SY5Y cells assessed as reduction in calcein fluorescence at 10 uM by calcein-AM dye based confocal laser scanning microscopy; format: functional
SH-SY5Y [6] = test: Inhibition of SOC in human SH-SY5Y cells assessed as reduction in thapsigargin-induced Ca2+ influx incubated for 5 mins at 5 uM by FURA-2AM dye based fluorescence assay; format: cell-based
SH-SY5Y [7] = test: Induction of mitochondrial membrane potential loss in human SH-SY5Y cells at 10 uM incubated for 10 mins by TMRE dye based assay; format: functional
SH-SY5Y [8] = conditions: Homo sapiens, at 10 µM; remark: listed apart in the source
Description: Modulation of mitochondrial permeability transition pore opening in human SH-SY5Y cells assessed as reduction in calcein fluorescence at 10 uM in presence of 0.2 uM CsA by calcein-AM dye based confocal laser scanning microscopy

SH-SY5Y [9] = test: Effect on cytosolic Ca2+ level in human SH-SY5Y cells at 10 uM by FURA-2AM dye based fluorescence assay; format: functional, cell-based
[10] = Cytotoxicity against human SH-SY5Y cells assessed as reduction in cell viability at 25 uM incubated for 1 hr by MTT assay; format: cell-based
[11] = Cytotoxicity against human SH-SY5Y cells assessed as reduction in cell viability at 0.1 to 20 uM incubated for 1 hr by MTT assay; format: cell-based
SH-SY5Y [12] = test: Inhibition of SOC in human SH-SY5Y cells assessed as reduction in thapsigargin-induced Ca2+ influx incubated for 5 mins at 1 uM by FURA-2AM dye based fluorescence assay; format: cell-based
SH-SY5Y [13] = test: Inhibition of SOC in human SH-SY5Y cells assessed as reduction in thapsigargin-induced Ca2+ influx incubated for 5 mins at 10 uM in presence of 10 uM FCCP by FURA-2AM dye based fluorescence assay; format: cell-based
SH-SY5Y [14] = test: Effect on cytosolic Ca2+ level in human SH-SY5Y cells at 10 uM followed by 1 mM Ca2+ addition 5 mins after compound treatment by FURA-2AM dye based fluorescence assay; format: functional, cell-based
SH-SY5Y [15] = test: Inhibition of SOC in human SH-SY5Y cells assessed as reduction in thapsigargin-induced Ca2+ influx incubated for 5 mins by FURA-2AM dye based fluorescence assay; format: cell-based
SH-SY5Y [16] = test: Effect on VGSC in human SH-SY5Y cells assessed as effect on total sodium current at 0.1 nM to 10 uM by whole cell patch clamp electrophysiology method; format: cell-based
SH-SY5Y [17] = conditions: Homo sapiens, at 10 µM; remark: listed apart in the source
Description: Inhibition of SOC in human SH-SY5Y cells assessed as reduction in thapsigargin-induced Ca2+ influx at 10 uM pre-incubated for 5 mins with 0.2 uM CsA followed by compound addition by FURA-2AM dye based fluorescence assay

SH-SY5Y [18] = test: Inhibition of SOC in human SH-SY5Y cells assessed as reduction in thapsigargin-induced Ca2+ influx incubated for 5 mins at 30 uM by FURA-2AM dye based fluorescence assay; format: cell-based

| Structure (SMILES) | Activity [1] | inhibition (SH-SY5Y [2]) | inhibition (SH-SY5Y [3]) | inhibition (SH-SY5Y [4]) | inhibition at 10 µM (SH-SY5Y [5]) | inhibition (SH-SY5Y [6]) | inhibition at 10 µM (SH-SY5Y [7]) | inhibition (SH-SY5Y [8]) | Activity (SH-SY5Y [9]) | Activity [10] | Activity [11] | inhibition (SH-SY5Y [12]) | inhibition (SH-SY5Y [13]) | Activity (SH-SY5Y [14]) | inhibition (SH-SY5Y [15]) | Activity (SH-SY5Y [16]) | inhibition (SH-SY5Y [17]) | inhibition (SH-SY5Y [18]) |
| --- | --- | --- | --- | --- | --- | --- | --- | --- | --- | --- | --- | --- | --- | --- | --- | --- | --- | --- |
| CC(C)=CCNC(=N)NCCC[C@H]1NC(=O)[C@H](Cc2ccccc2)NC(=O)[C@H](CC(=O)O)NC(=O)[C@H](CC(C)C)NC(=O)CNC(=O)[C@H]2CCCN2C(=O)[C@H](Cc2ccccc2)NC1=O | inactive | inactive | Active | Active | 30% | 33% | 36% | inactive | inactive | 42% | Non-toxic | inactive | 72% | inactive | Dose-dependent effect | inactive | inactive | – |
| COc1ccc(CCCOC(Cn2ccnc2)c2ccc(OC)cc2)cc1 (centres undefined) | – | – | – | – | – | – | – | – | – | – | – | – | – | – | – | – | – | Active |
| N#CC(C#N)=NNc1ccc(OC(F)(F)F)cc1 | – | Active | – | 51% | 20% | – | 68% | inactive | – | – | – | – | – | – | – | – | Active | – |
